# According to patent US6214860A, “Synergistic antitumor composition containing a naphthalensulphonic acid derivative” (Pharmacia & Upjohn S.p.A., priority 1997, dated 2001):
# Legend:
# [1] = VP-16 15 mg/kg iv, days 1, 4, 7 and 11; combination: + PNU 145156E 100 mg/kg ip 2 h prior
# Experimental: Mice C57BL/6 were implanted with M5076 murine reticulosarcoma cells. PNU 145156E was administered ip 2 h prior to cytotoxic drugs administered iv starting treatment 24 h after tumor implant. Treatments were performed at days 1, 4, 7 and 11.
# The toxicological evaluation was performed in terms of body weight loss and spleen and liver reduction.
# [2] = tested on: M5076 murine reticulosarcoma cells; assay: In vitro antiproliferative activity (% cell growth vs untreated control); type: cell-based
# Experimental: (§1) The combinations were assayed in vitro on M5076 murine reticulosarcoma cells and in vivo on the same tumor cells implanted intramuscularly.
# [3] = tested on: M5076 murine reticulosarcoma cells; assay: In vivo antitumor activity in mice implanted with M5076 tumor cells; parameters: species or system Mice C57BL/6; details: VP-16 15 mg/kg iv, days 1, 4, 7 and 11, combination: + PNU 145156E 100 mg/kg ip 2 h prior
# Experimental: as §1
# The antitumor activity was calculated in terms of:
# % AUC: inhibition of tumor growth
# T/C %: percentage of median increase in survival time
# The A.U.C. (area under the curve) of the tumor growth was calculated by using the trapezoidal method, and is referred to the measurement of tumor growth performed one week after the last treatment. The percentage of inhibition (% A.U.C.) was calculated using the following formula: [formula]
# The percentage of increase in survival time (T/C% ) was calculated using the following formula: [formula]
# Mice were monitored according to guidelines and sacrificed when tumor weight exceeded 10% body weight. Tumor growth delay (TGD) is the time, in days, to reach one gram of tumor weight in treated animals as compared to control animals.
# Evaluation of statistical significance was performed as follows: Student's Test for cytotoxic activity, Two-Way Anova for increase in survival time (T/C %) with combined treatment in comparison to the increase exerted separately by the two drugs, Tukey Test for tumor weight reduction (AUC % inhibition) with combined treatment in comparison to the reduction exerted separately by the two drugs.
# The criterion for statistical significance was the 0.01 level ( )
smiles,measurement,setting,value
"COc1cc([C@@H]2c3cc4c(cc3[C@@H](O[C@@H]3O[C@@H]5CO[C@@H](C)O[C@H]5[C@H](O)[C@H]3O)[C@H]3COC(=O)[C@H]23)OCO4)cc(OC)c1O [VP-16, etoposide]",Toxic/total mice,[1],0/9
same,activity at 0.004 µg/mL,"[2]; Mus musculus, M5076, cytotoxic 4 ng/ml, PNU 145156E 0 ng/ml, 72 h, 37° C., read-out: % cell growth ± S.E.",96 ± 8%
same,activity at 0.02 µg/mL,"[2]; Mus musculus, M5076, cytotoxic 20 ng/ml, PNU 145156E 0 ng/ml, 72 h, 37° C., read-out: % cell growth ± S.E.",77 ± 5%
same,activity at 0.1 µg/mL,"[2]; Mus musculus, M5076, cytotoxic 100 ng/ml, PNU 145156E 0 ng/ml, 72 h, 37° C., read-out: % cell growth ± S.E.",15 ± 7%
same,% cell growth ± S.E.,"[2]; cytotoxic 4 ng/ml + PNU 145156E 50000 ng/ml, 72 h, 37° C.",91 ± 2%
same,% cell growth ± S.E.,"[2]; cytotoxic 20 ng/ml + PNU 145156E 50000 ng/ml, 72 h, 37° C.",66 ± 8%
same,% cell growth ± S.E.,"[2]; cytotoxic 100 ng/ml + PNU 145156E 50000 ng/ml, 72 h, 37° C.",9 ± 4%
same,antiproliferative activity in the presence of PNU 145156E,"[2]; in words, PNU 145156E 50000 ng/ml vs 0 ng/ml",unchanged in the presence of PNU 145156E
same,T/C % (median increase in survival time),[3],130%
same,Tumor weight,[3],2.86 ± 0.8 gr
same,A.U.C. % inhib. (inhibition of tumor growth),[3]; one week after last treatment,90%
same,TGD (tumor growth delay),[3]; time to reach one gram,12 days
